{"source": "patent US12690587B2", "about": "“Animal and insect repellent and method of its use” (Cranberry IP, LLC, priority 2023, dated 2026)", "system": "white tail deer", "test": "12-month field test of repellent at twenty-one monitored test sites (tracks and browsing damage)", "assay_type": "in vivo, Odocoileus virginianus", "details": "within 60-day application periods; regular and consistent use", "procedure": "The performance of repellent composition of the present invention was evaluated by the inventor of the present invention in a study that lasted for approximately one year using twenty-one monitored test sites to field test the effectiveness of the composition that included butyl lactate. These sites each had three monitored areas: formulation with butyl lactate (1), same formulation without butyl lactate (2), and control (3), each approximately 100-200 square feet in size. Due to the proximity of the sites, the range of climates, food sources and types of species were consistent, making it easy to assess the repellent's effectiveness, which was evaluated by means of visual inspections and rating for animal tracks around and in the areas, and browsing damage to the plant material.", "data": [{"smiles": "CCCCOC(=O)C(C)O", "note": "(stereo not shown) [Butyl lactate]", "values": [{"measurement": "duration of decreased white tail deer damage, presence and entry into treated areas", "result": "more than 30 days"}]}]}
